The experiment concerns Plasmodium berghei. Put plainly: Luciferase/luciferin-expressing antifolate-resistant parasites were used to infect a culture of HepG2 cells that were pre-incubated with compounds. Infected hepatocytes emit light due to the luciferase reaction. Assay results are presented as the percent inhibition of light emission compared to control. […]. The settings on record: sporozoite; for IC90: read-out: LUCIFERASE INFECTION ASSAY - IC90. It counts as functional.

Where [1] appears, read: read-out: LUCIFERASE INFECTION ASSAY - IC50.

Bounds are passed on as bounds.

On to `CCN1C(=O)N(CCCc2cccnc2)C(=O)C12CCN(Cc1cccc(C(F)(F)F)c1)CC2`, for which the IC90 – broadly, the point of the concentration-response curve where the effect stands at 90% – is over 6.95 µM. In addition, for the setting “HEPG2TOX_HILL_SLOPE 2.53, HEPG2TOX_R_SQUARED 0.847, PBLUC_HILL_SLOPE 12.5, PBLUC_R_SQUARED 0.0898, read-out: LUCIFERASE INFECTION ASSAY - IC50”, the half-maximal inhibitory concentration (IC50) (commonly the concentration that inhibits the measured activity by half) turned out to be 6.59 µM.

In the case of `Cc1c(C#N)c(Sc2ccccc2NC(=O)c2ccco2)nc2ccccc12`, the IC90 turned out to be 8.38 µM. In addition, for the setting “HEPG2TOX_HILL_SLOPE 2.88, HEPG2TOX_R_SQUARED 0.661, PBLUC_HILL_SLOPE 2.8, PBLUC_R_SQUARED 0.14, read-out: LUCIFERASE INFECTION ASSAY - IC50”, the concentration for half-maximal inhibition (IC50) turned out to be 3.82 µM.

For `COc1ccc(Nc2nccc3[nH]c(-c4cccc(F)c4)cc23)cc1O`, the IC90 is over 10 µM. For the same compound, the half-inhibitory concentration (IC50) (PBLUC_HILL_SLOPE 4.51, PBLUC_R_SQUARED 0.135, read-out: LUCIFERASE INFECTION ASSAY - IC50) came out at 9.39 µM.

`Cc1cc(C)cc(NC(=O)C(NNC(=O)CC23CC4CC(CC(C4)C2)C3)c2ccccc2)c1` (stereo unspecified): the IC90 is over 10 µM. For the same compound, the IC50 under setting [1] was over 10 µM.

In the case of `Cc1ccc(COC(=O)c2cccc(S(=O)(=O)NCc3ccccc3)c2)cc1`, the IC90 is 4.92 µM. In addition, under “HEPG2TOX_HILL_SLOPE 2.79, HEPG2TOX_R_SQUARED 0.991, PBLUC_HILL_SLOPE 8.82, PBLUC_R_SQUARED 0.278, read-out: LUCIFERASE INFECTION ASSAY - IC50”, the IC50 was determined as 3.84 µM.

Take `NC(COCc1ccccc1)c1csc(NC(=O)Nc2ccccc2-c2ccccc2)n1` (stereo unspecified): the IC90 was determined as 5.31 µM. Also, where the note is “PBLUC_HILL_SLOPE 5.09, PBLUC_R_SQUARED 0.778, read-out: LUCIFERASE INFECTION ASSAY - IC50”, the IC50 amounted to 3.45 µM.

In the case of `COc1cc(Br)c(/C=C2/C(=O)Nc3cc(Cl)ccc32)cc1O`, the IC90 was over 10 µM. The IC50 (HEPG2TOX_HILL_SLOPE 7.49, HEPG2TOX_R_SQUARED 0.517, PBLUC_HILL_SLOPE 14.1, PBLUC_R_SQUARED 0.1, read-out: LUCIFERASE INFECTION ASSAY - IC50) was 9.39 µM.

`COc1ccc(C(CNC(=O)c2ccc(Oc3ccc(Cl)cc3[N+](=O)[O-])cc2)N2CCCC2)cc1` (stereo unspecified): the IC90 is over 10 µM. The IC50 (PBLUC_HILL_SLOPE 1.72, PBLUC_R_SQUARED 0.19, read-out: LUCIFERASE INFECTION ASSAY - IC50) was found to be 6.08 µM.

Regarding `c1ccc(Nc2nc(-c3ccc4c(c3)OCCO4)cs2)nc1`, the IC90 is 2.55 µM. For the same compound, the 50% inhibitory concentration (IC50) (FFLUC_HILL_SLOPE 1.22, FFLUC_R_SQUARED 0.822, PBLUC_HILL_SLOPE 0.789, PBLUC_R_SQUARED 0.792, read-out: LUCIFERASE INFECTION ASSAY - IC50) amounted to 0.158 µM.

Turning to `Cc1ccc(S(=O)(=O)Nc2ccc(C(=O)Nc3ncccc3O)cc2)cc1C`, the IC90 is over 10 µM. Moreover, the 50% inhibitory concentration (IC50) under setting [1] was 7.38 µM.

On to `O=C(O)COc1ccccc1CS(=O)(=O)c1ccc(Cl)cc1`, for which the 90% effect concentration (IC90) is over 9.68 µM. The IC50 under setting [1] was over 9.68 µM.

As to `CCCCNC(=O)c1c(NC(=O)C(CC)c2ccccc2)nc2ccc(C)cn12` (stereo unspecified), the IC90 was over 8.41 µM. Also, under “FFLUC_HILL_SLOPE 12.5, FFLUC_R_SQUARED 0.645, PBLUC_HILL_SLOPE 0.242, PBLUC_R_SQUARED 0.0523, read-out: LUCIFERASE INFECTION ASSAY - IC50”, the IC50 is over 8.41 µM.

As to `COCOc1ccc(-c2cc(-c3ccc(N)nc3)cnc2N)cc1`, the IC90 was 3.91 µM. In addition, the IC50 (PBLUC_HILL_SLOPE 17.1, PBLUC_R_SQUARED 0.834, read-out: LUCIFERASE INFECTION ASSAY - IC50) came to 3.44 µM.

For `Oc1c(Cn2c(=S)sc3ccccc32)cc(Cl)c2cccnc12`, the IC90 came out at 1.24 µM. Besides, where the note is “FFLUC_HILL_SLOPE 19.2, FFLUC_R_SQUARED 0.535, HEPG2TOX_HILL_SLOPE 1.74, 1.21, HEPG2TOX_R_SQUARED 0.199, 0.803, PBLUC_HILL_SLOPE 4.66, PBLUC_R_SQUARED 0.802, read-out: LUCIFERASE INFECTION ASSAY - IC50”, the IC50 stood at 0.772 µM.

Regarding `Clc1cccc(-c2cn3c(-c4ccncc4)cnc3cn2)c1`, the IC90 was over 10.8 µM. Moreover, the half-maximal inhibitory concentration (IC50) (FFLUC_HILL_SLOPE 4.91, FFLUC_R_SQUARED 0.112, HEPG2TOX_HILL_SLOPE 0.251, HEPG2TOX_R_SQUARED 0.199, PBLUC_HILL_SLOPE 3.54, PBLUC_R_SQUARED 0.544, read-out: LUCIFERASE INFECTION ASSAY - IC50) was 6.34 µM.

As to `O=C(C1CCCO1)N1CCn2c1nc1ccccc12` (stereo unspecified), the 90% effect concentration (IC90) is over 10 µM. Besides, the 50% inhibitory concentration (IC50) under setting [1] was over 10 µM.

With `CN(C)CCCNc1nc(-c2cccs2)nc2sc3c(c12)CCCC3`, the concentration for an effect of 90% (IC90) stood at 4.04 µM. For the same compound, for the setting “PBLUC_HILL_SLOPE 12.2, PBLUC_R_SQUARED 0.29, read-out: LUCIFERASE INFECTION ASSAY - IC50”, the half-inhibitory concentration (IC50) came out at 3.37 µM.

For `FC(F)Oc1ccc(-c2n[nH]cc2Sc2ccc(Cl)cc2)cc1`, the 90% effect concentration (IC90) is over 9.35 µM. For the same compound, the IC50 (FFLUC_HILL_SLOPE 44.1, FFLUC_R_SQUARED 0.44, PBLUC_HILL_SLOPE 8.27, PBLUC_R_SQUARED 0.292, read-out: LUCIFERASE INFECTION ASSAY - IC50) is over 9.35 µM.

For the compound `O=[N+]([O-])c1cnc(Sc2nnc(-c3ccccc3)[nH]2)s1`, the IC90 is over 10.8 µM. Under setting [1], the IC50 was over 10.8 µM.

As for `CCC1c2ccsc2CCN1Cc1cc(=O)n2cc(Cl)ccc2n1` (stereo unspecified), the IC90 is over 10 µM. Under setting [1], the IC50 was over 10 µM.

Consider `C#Cc1cccc(NC(=O)c2[nH]c(C)c(C(=O)OCC)c2C)c1`, for which the concentration for an effect of 90% (IC90) is over 10 µM. In addition, the half-maximal inhibitory concentration (IC50) under setting [1] is over 10 µM.

In the case of `C[C@H]1O[C@@H](O[C@H]2[C@@H](O)C[C@H](O[C@H]3[C@@H](O)C[C@H](O[C@H]4CC[C@@]5(C)[C@H](CC[C@@H]6[C@@H]5C[C@@H](O)[C@]5(C)[C@@H](C7=CC(=O)OC7)CC[C@]65O)C4)O[C@@H]3C)O[C@@H]2C)C[C@H](O)[C@@H]1O` [DIGOXIN], the 90% effect concentration (IC90) amounted to 0.117 µM. In addition, the IC50 under setting [1] turned out to be 0.0489 µM.

As to `C=CCN(c1cccc(C(F)(F)F)c1)S(=O)(=O)c1cc(C(=O)Nc2ccc3c(c2)CCC3)ccc1Cl`, the IC90 is over 10 µM. Besides, the IC50 under setting [1] was over 10 µM.

For the compound `CCc1nnc(NC(=O)c2csc(Cc3ccccc3)n2)s1`, the IC90 is over 10 µM. Further, the concentration for half-maximal inhibition (IC50) under setting [1] is 8.84 µM.

In the case of `COc1cccc(-c2cnc3c(NC=O)cc(-c4ccc(OC)cc4OC)cn23)c1`, the IC90 turned out to be 0.664 µM. In addition, the 50% inhibitory concentration (IC50) (HEPG2TOX_HILL_SLOPE 0.453, HEPG2TOX_R_SQUARED 0.602, PBLUC_HILL_SLOPE 0.932, PBLUC_R_SQUARED 0.666, read-out: LUCIFERASE INFECTION ASSAY - IC50) came out at 0.0629 µM.

As to `Cc1oc(C(C)(C)C)cc1-c1cc(NC(=O)Nc2ccc(OC(F)(F)F)cc2)n(-c2cc(C(F)(F)F)cc(C(F)(F)F)c2)n1`, the 90% effect concentration (IC90) is 4.49 µM. Also, the half-maximal inhibitory concentration (IC50) (HEPG2TOX_HILL_SLOPE 8.23, HEPG2TOX_R_SQUARED 0.187, PBLUC_HILL_SLOPE 2.09, PBLUC_R_SQUARED 0.645, read-out: LUCIFERASE INFECTION ASSAY - IC50) came out at 1.57 µM.

Consider `CC(OC(=O)c1ccc(C(C)C)cc1)C(=O)Nc1sccc1C(N)=O` (stereo unspecified), for which the 90% effect concentration (IC90) is over 10 µM. Besides, under setting [1], the IC50 was over 10 µM.

As to `COc1ccc(S(=O)(=O)N2CCN(C(=O)c3sc4nc5n(c(=O)c4c3C)CCCCC5)CC2)cc1`, the 90% effect concentration (IC90) was over 10 µM. Also, the IC50 under setting [1] is over 10 µM.

As for `O=C1Nc2ccc(F)cc2/C1=N/NC(=S)NC1CC2C=CC1C2` (stereo unspecified), the IC90 was determined as 1.38 µM. In addition, the IC50 (HEPG2TOX_HILL_SLOPE 0.956, HEPG2TOX_R_SQUARED 0.854, PBLUC_HILL_SLOPE 4.64, PBLUC_R_SQUARED 0.779, read-out: LUCIFERASE INFECTION ASSAY - IC50) turned out to be 0.86 µM.

In the case of `CC(=O)c1c(C)[nH]c(C(=O)OC(c2ccccc2)c2ccc(Cl)cc2)c1C` (stereo unspecified), the IC90 was over 10 µM. The IC50 under setting [1] is over 10 µM.

On to `O=C(/C=C/c1cn(-c2ccccc2)nc1-c1ccncc1)c1cccc(N2CCCC2=O)c1`, for which the 90% effect concentration (IC90) was over 10 µM. Further, the IC50 (HEPG2TOX_HILL_SLOPE 7.23, HEPG2TOX_R_SQUARED 0.576, PBLUC_HILL_SLOPE 3.48, PBLUC_R_SQUARED 0.189, read-out: LUCIFERASE INFECTION ASSAY - IC50) is 9.57 µM.

For the compound `COc1ccc(C)cc1NC(=O)C(OC(=O)c1cccn1C)c1ccccc1` (stereo unspecified), the IC90 was over 10 µM. The IC50 (PBLUC_HILL_SLOPE 2.21, PBLUC_R_SQUARED 0.0841, read-out: LUCIFERASE INFECTION ASSAY - IC50) is 8.87 µM.

Turning to `CNc1nc2cnc(Nc3cccc(N(C)C)c3)cc2n1-c1cccc(C(F)(F)F)c1`, the IC90 was over 10 µM. Also, the IC50 under setting [1] was over 10 µM.

For `Cc1cccc(N2CCN(C(=O)c3cc4ccccc4o3)CC2C)c1` (stereo unspecified), the concentration for an effect of 90% (IC90) is over 10 µM. Where the note is “PBLUC_HILL_SLOPE 1.92, PBLUC_R_SQUARED 0.443, read-out: LUCIFERASE INFECTION ASSAY - IC50”, the concentration for half-maximal inhibition (IC50) worked out at 4.83 µM.

As to `c1ccc(-c2csc3ncnc(Sc4nnc(C5COc6ccccc6O5)n4-c4ccccc4)c23)cc1` (stereo unspecified), the 90% effect concentration (IC90) is over 10 µM. Under setting [1], the IC50 was over 10 µM.

Turning to `Cc1c(C)c(C)c(S(=O)(=O)Nc2ccc(Oc3ccc(Cl)cc3)cc2)c(C)c1C`, the IC90 was over 7.68 µM. Under “PBLUC_HILL_SLOPE 11, PBLUC_R_SQUARED 0.0118, read-out: LUCIFERASE INFECTION ASSAY - IC50”, the IC50 is over 7.68 µM.

As to `CC(C)(C)NC(=O)NC(=O)COC(=O)CNS(=O)(=O)c1ccc(Br)cc1Cl`, the 90% effect concentration (IC90) is over 10 µM. Besides, under setting [1], the half-inhibitory concentration (IC50) is over 10 µM.

`COc1cc2c(cc1NC(=O)c1cnn(C(C)(C)C)c1C)oc1ccccc12`: the IC90 came out at 3.66 µM. For the same compound, the IC50 (PBLUC_HILL_SLOPE 16.6, PBLUC_R_SQUARED 0.596, read-out: LUCIFERASE INFECTION ASSAY - IC50) came out at 3.21 µM.
